Results: ChEMBL document CHEMBL1145982, “Novel dihydrofolate reductase inhibitors. Structure-based versus diversity-based library design and high-throughput synthesis and screening” (J Med Chem, 2003)
≈ marks a conversion by molar mass, not a printed value.

Columns and labels:
Homo sapiens = species: Homo sapiens; test: Selectivity ratio against human and […] ATCC 49619 dihydrofolate reductase
Dihydrofolate reductase [1] = target: T1, Dihydrofolate reductase (Staphylococcus aureus, UniProt P0A017); test: Inhibitory activity against TMP-Resistance Dihydrofolate reductase from Staphylococcus aureus 157/4696
[2] = target: T2, Dihydrofolate reductase (Homo sapiens) (UniProt P00374); conditions: Staphylococcus
T2 sequence (whole entry): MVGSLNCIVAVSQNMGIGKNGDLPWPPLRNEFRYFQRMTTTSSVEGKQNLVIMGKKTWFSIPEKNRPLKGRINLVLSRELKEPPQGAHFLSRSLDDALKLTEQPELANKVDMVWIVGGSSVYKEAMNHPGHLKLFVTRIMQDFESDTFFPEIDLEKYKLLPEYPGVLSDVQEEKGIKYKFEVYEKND
Description: Inhibitory activity of TMP-Resistance Dihydrofolate reductase against Staphylococcus aureus 157/4696

Dihydrofolate reductase [3] = target: T1, Dihydrofolate reductase; test: Inhibitory activity of TMP-Resistance DHFR against Staphylococcus aureus 157/4696
[4] = target: T2, Dihydrofolate reductase (Homo sapiens); conditions: Staphylococcus; remark: listed apart in the source
Description: Antibacterial activity against TMP-Resistant Dihydrofolate reductase from Staphylococcus aureus 157/4696

Dihydrofolate reductase [5] = target: T1, Dihydrofolate reductase; test: Tested for inhibition of TMP-Resistant Dihydrofolate reductase from Staphylococcus aureus 157/4696.
[6] = target: Dihydrofolate reductase (Staphylococcus aureus) (UniProt P0A017)
Description: Tested for inhibition of TMP-Resistant Dihydrofolate reductase from Staphylococcus pneumoniae 1/1.

[7] = target: T2, Dihydrofolate reductase (Homo sapiens); conditions: Staphylococcus; ATCC 49619
Description: Antibacterial activity of TMP-susceptible DHFR against Staphylococcus pneumoniae ATCC 49619

[8] = target: T2, Dihydrofolate reductase (Homo sapiens); conditions: Staphylococcus; ATCC 49619; remark: listed apart in the source
Description: Antibacterial activity against TMP-susceptible DHFR from Staphylococcus pneumoniae ATCC 49619

T1 sequence (P0A017 2-159 limits assumed): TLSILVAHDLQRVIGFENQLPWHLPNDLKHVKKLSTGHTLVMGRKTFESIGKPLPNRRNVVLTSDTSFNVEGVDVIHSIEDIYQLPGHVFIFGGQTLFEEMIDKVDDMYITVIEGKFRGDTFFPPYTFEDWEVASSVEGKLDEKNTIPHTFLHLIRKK
Chain of Dihydrofolate reductase (Staphylococcus aureus) (P0A017 2-159 limits assumed): as above

Structure (SMILES) | Ratio (Homo sapiens) | IC50 (Dihydrofolate reductase [1]) | further results
CC1c2ccc3c4ccccc4n(C)c3c2CCN1Cc1cnc(N)nc1N (centres undefined) | 21 |  | 
Nc1ncc(CN2CCc3ccccc3C2)c(N)n1 | > 90 | 40 µM | 
Nc1ncc(CN2CCc3c([nH]c4ccccc34)C2)c(N)n1 | 45000 |  | 
COc1cc2c(cc1OC)C(c1ccc(Cl)cc1Cl)CN(Cc1cnc(N)nc1N)C2 (centres undefined) | 243 | 2 µM | 
COc1cc2c(cc1OC)C(C)N(Cc1cnc(N)nc1N)CC2 (centres undefined) | 15 |  | 
COc1cc2c(c3c1OCO3)[C@H](C)N(Cc1cnc(N)nc1N)CC2 |  | 5.4 µM | 
CSc1c2n(c3cc(Cl)ccc13)CCN(Cc1cnc(N)nc1N)C2 | 2600 |  | 
COc1cc2c(c3c1OCO3)[C@@H](C)N(Cc1cnc(N)nc1N)CC2 |  | 1.3 µM | 
COc1ccc2c(c1)CN(Cc1cnc(N)nc1N)CC2c1cccc([N+](=O)[O-])c1 (centres undefined) | 16700 |  | 
CC1c2cc(Cc3ccccc3)c(-c3ccccc3)n2CCN1Cc1cnc(N)nc1N (centres undefined) | 40 |  | 
COc1cc2c(cc1OC)CN(Cc1cnc(N)nc1N)CC2 |  |  | MIC [2]: 4 µg/mL (≈ 12.7 µM); IC50 (Dihydrofolate reductase [3]): 30 µM; MIC [4]: 4 µg/mL (≈ 12.7 µM); IC50 (Dihydrofolate reductase [5]): > 100 µM; MIC [6]: > 32 µg/mL; MIC [7]: 0.5 µg/mL (≈ 1.59 µM); MIC [8]: 0.5 µg/mL (≈ 1.59 µM)
